Measured values as given in ChEMBL document CHEMBL3046096, “CoMFA AND CoMSIA STUDIES ON A SET OF BENZYL PIPERAZINES, PIPERADINES, PYRAZINOPYRIDOINDOLES, PYRAZINOISOQUINOLINES AND SEMI RIGID ANALOGS OF DIPHENHYDRAMINE” (Med Chem Res, 2004).

molecular target: Histamine H1 receptor (Cavia porcellus) (UniProt P31389); experiment: Antagonist activity at histamine H1 receptor in Cavia porcellus (guinea pig) ileum; format: tissue-based
Sequence (P31389 whole entry): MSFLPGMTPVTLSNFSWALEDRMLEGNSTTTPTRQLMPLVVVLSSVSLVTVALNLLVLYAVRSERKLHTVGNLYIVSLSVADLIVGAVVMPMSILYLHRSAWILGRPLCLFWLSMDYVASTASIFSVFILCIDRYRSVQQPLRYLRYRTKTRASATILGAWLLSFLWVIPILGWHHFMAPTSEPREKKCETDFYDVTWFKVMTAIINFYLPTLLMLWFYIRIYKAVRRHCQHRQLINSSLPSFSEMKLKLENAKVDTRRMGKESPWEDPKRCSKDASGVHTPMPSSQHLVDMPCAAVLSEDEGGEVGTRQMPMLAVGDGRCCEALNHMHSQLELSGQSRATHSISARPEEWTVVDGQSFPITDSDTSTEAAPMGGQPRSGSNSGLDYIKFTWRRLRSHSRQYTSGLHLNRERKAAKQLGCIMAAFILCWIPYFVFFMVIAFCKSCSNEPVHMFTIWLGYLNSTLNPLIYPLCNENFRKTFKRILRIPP

Row | SMILES | Activity
1 | O=C(NCCN1CCN(Cc2ccccc2)CC1)c1ccccc1 | 6.94 µM/L
2 | CCc1ccccc1NC(=O)CCN1CCN(Cc2ccccc2)CC1 | 0.778 µM/L
3 | O=C(CCN1CCC(Cc2ccccc2)CC1)Nc1ccccc1 | 1.51 µM/L
4 | O=C(CCN1CCN(Cc2ccccc2)CC1)Nc1ccccc1Cl | 0.836 µM/L
5 | O=C(CCN1CCC(Cc2ccccc2)CC1)Nc1ccccc1F | 0.832 µM/L
6 | O=C(CCN1CCN(Cc2ccccc2)CC1)Nc1ccccc1 | 2.17 µM/L
7 | CN(C)C[C@@H]1O[C@H](c2ccccc2)c2ccccc21 (relative stereo) | 0.0039 µM/L
8 | CN(C)CCOC1c2ccccc2-c2ccccc21 | 0.039 µM/L
9 | O=C(CCN1CCN(Cc2ccccc2)CC1)Nc1ccccc1F | 1.32 µM/L
10 | O=C(CCN1CCN(Cc2ccccc2)CC1)Nc1ccccc1[N+](=O)[O-] | 1.7 µM/L
11 | O=C(CCN1CCC(Cc2ccccc2)CC1)Nc1ccccc1Cl | 0.561 µM/L
12 | CN(C)[C@@H]1CO[C@@H](c2ccccc2)c2ccccc21 (relative stereo) | 0.51 µM/L
13 | CN(C)C[C@@H]1O[C@@H](c2ccccc2)c2ccccc21 (relative stereo) | 0.0039 µM/L
14 | CCc1ccccc1NC(=O)CCN1CCC(Cc2ccccc2)CC1 | 0.477 µM/L
15 | O=C(NCCN1CCN(Cc2ccccc2)CC1)c1ccccc1Cl | 0.696 µM/L
16 | O=C(NCCN1CCN(Cc2ccccc2)CC1)c1ccccc1Br | 0.421 µM/L

The next lines start with the values.

Row | Activity | SMILES
17 | 1.6 µM/L | O=C(CCN1CCN2Cc3[nH]c4ccccc4c3CC2C1)Nc1ccccc1 (centres undefined)
18 | 1.74 µM/L | O=C(CCN1CCN2Cc3[nH]c4ccccc4c3CC2C1)Nc1ccccc1[N+](=O)[O-] (centres undefined)
19 | 0.283 µM/L | Cc1ccccc1C(=O)NCCN1CCN2Cc3[nH]c4ccccc4c3CC2C1 (centres undefined)
20 | 0.925 µM/L | Nc1ccccc1C(=O)NCCN1CCN2Cc3[nH]c4ccccc4c3CC2C1 (centres undefined)
21 | 1.34 µM/L | O=C(CCN1CCN2Cc3ccccc3CC2C1)Nc1ccccc1 (centres undefined)
22 | 0.677 µM/L | O=C(CCN1CCN2Cc3ccccc3CC2C1)Nc1ccccc1Cl (centres undefined)
23 | 0.535 µM/L | O=C(NCCN1CCN2Cc3[nH]c4ccccc4c3CC2C1)c1ccccc1 (centres undefined)
24 | 1.28 µM/L | O=C(CCN1CCN2Cc3[nH]c4ccccc4c3CC2C1)Nc1ccccc1F (centres undefined)
25 | 0.661 µM/L | O=C(NCCN1CCC(Cc2ccccc2)CC1)c1ccccc1Br
26 | 1.55 µM/L | O=C(NCCN1CCC(Cc2ccccc2)CC1)c1ccccc1
27 | 1.32 µM/L | O=C(CCN1CCN2Cc3ccccc3CC2C1)Nc1ccccc1[N+](=O)[O-] (centres undefined)
28 | 0.206 µM/L | O=C(NCCN1CCN2Cc3[nH]c4ccccc4c3CC2C1)c1ccccc1Cl (centres undefined)
29 | 0.525 µM/L | CCc1ccccc1NC(=O)CCN1CCN2Cc3ccccc3CC2C1 (centres undefined)
30 | 1.07 µM/L | Cc1ccccc1C(=O)NCCN1CCC(Cc2ccccc2)CC1
31 | 7.12 µM/L | Cc1ccccc1C(=O)NCCN1CCN(Cc2ccccc2)CC1
32 | 0.799 µM/L | O=C(NCCN1CCC(Cc2ccccc2)CC1)c1ccccc1Cl
33 | 0.979 µM/L | O=C(CCN1CCN2Cc3[nH]c4ccccc4c3CC2C1)Nc1ccccc1Cl (centres undefined)
34 | 0.345 µM/L | O=C(NCCN1CCN(Cc2ccccc2)CC1)c1ccccc1I
35 | 0.364 µM/L | COc1ccccc1C(=O)NCCN1CCN2Cc3[nH]c4ccccc4c3CC2C1 (centres undefined)
36 | 1.32 µM/L | O=C(NCCN1CCN(Cc2ccccc2)CC1)c1ccccc1[N+](=O)[O-]
37 | 0.634 µM/L | CCc1ccccc1NC(=O)CCN1CCN2Cc3[nH]c4ccccc4c3CC2C1 (centres undefined)
38 | 0.375 µM/L | O=C(NCCN1CCN2Cc3[nH]c4ccccc4c3CC2C1)c1ccccc1[N+](=O)[O-] (centres undefined)
39 | 0.963 µM/L | COc1ccccc1NC(=O)CCN1CCC(Cc2ccccc2)CC1
